Laboratory results published in patent US9387221B2, “SDF-1 binding nucleic acids and the use thereof in cancer treatment” (NOXXON Pharma AG, priority 2010, dated 2016).
“Also recorded” adds a separate entry of the source.

Test system: biotinylated human D-SDF-1
Assay: Competitive pull-down binding assay
Settings: aptamer level; reference 192-A10-001
Procedure: In order to compare different D-SDF-1 binding aptamers, a competitive ranking assay was performed. For this purpose the most affine aptamer available was radioactively labeled (see above) and served as reference. […] An excess of de- and renatured non-labeled D-RNA aptamer variants was added to different concentrations (e.g. 2, 10, and 50 nM) with the labeled reference aptamer to parallel binding reactions. The aptamers to be tested competed with the reference aptamer for target binding, thus decreasing the binding signal in dependence of their binding characteristics.

Substance | binding affinity in competitive pull-down binding assay vs. 192-A10-001
AGCGUGGUGUGAUCUAGAUGUAGUGGCUGAUCCUAGUCAGGUACGCU (chemistry not fully specified) [193-C2-001] | superior binding
GCUGUGAAAGCAACAUGUCAAUGAAAGGUAGCCACAGC (aptamer; Made as D-RNA aptamer and L-RNA Spiegelmer, tested form not given here, further chemistry not given here) [192-E9] | much weaker binding affinity
AGCGUGAAAGUAACACGUAAAAUGAAAGGUAACCACGCU (Made as D-RNA aptamer and L-RNA Spiegelmer, tested form not given here, further chemistry not given here) [191-A6] | Weaker binding affinity
GUGUUGCAGGGGUUAGGGCUUGAAGUCGGCCUGCAGCAC (chemistry not given here) [197-E3] | weaker binding affinities
GUGCUGCCGGGGUUAGGGCUAA-AGUCGGCCGACAGCAC (GUGCUGCCGGGGUUAGGGCUAAAGUCGGCCGACAGCAC; chemistry not given here) [197-D1] | Much weaker binding affinity
GCUGUAAAAGUAACAUGUCAAUGAAAGGUAACUACAGC (aptamer; Made as D-RNA aptamer and L-RNA Spiegelmer, tested form not given here, further chemistry not given here) [192-C9] | Weaker binding affinity
GUGCUGCGGGGGUUAGGGCUCAAAGUCGGCCUGCAGCAC (chemistry not given here) [197-H2] | Much weaker binding affinity
GCUGUGAAAGUAACACGUCAAUGAAAGGUAACCGCAGC (aptamer; Made as D-RNA aptamer and L-RNA Spiegelmer, tested form not given here, further chemistry not given here) [192-F10] | Weaker binding affinity; also recorded: reduced binding affinity
GUGCUGCGGGGGUUAGGGCUCGAAGUCGGCCCGCAGCAC (chemistry not given here) [197-H3] | weaker binding affinities
GCUGCGAAAGCGACAUGUCAAUGAAAGGUAGCCGCAGC (aptamer; Made as D-RNA aptamer and L-RNA Spiegelmer, tested form not given here, further chemistry not given here) [192-D10] | much weaker binding affinity
AGCGUGGUGUGAUCUAGAUGUAAUGGCUGAUCCUAGUCAGGUGCGCU (chemistry not fully specified) [193-F2-001] | superior binding
GCUAUGAAAGUAACAUGUCAAUGAAAGGUAACCAUAGC (aptamer; Made as D-RNA aptamer and L-RNA Spiegelmer, tested form not given here, further chemistry not given here) [192-H11] | Weaker binding affinity

Same assay, conditions: compared with 190-A3-001

Substance | binding affinity of derivatives of 190-A3-001
UGAGAUAGGGGUUAGGGCUUAAAGUCGGCUGAUUCUCA (aptamer; Made as D-RNA aptamer and L-RNA Spiegelmer, tested form not given here, further chemistry not given here) [190-A3-003] | does not have an influence on the binding affinity
GGGGUUAGGGCUUAAAGUCGGCUGAUUCU (Made as D-RNA aptamer and L-RNA Spiegelmer, tested form not given here, further chemistry not given here) [190-A3-007] | very strong reduction of binding affinity

Same assay, conditions: reference 191-D5-007

Substance | binding affinity in competitive pull-down binding assay vs. 191-D5-007
CCGCGGUUAGGGCUAGAAGUCGGGCGG (chemistry not given here) [191-D5-017] | reduced binding affinity
GGCCGGGGUUAGGGCUAGAAGUCGGCCGGCC (chemistry not fully specified) [197-B2-006-31a] | the same as shown for 191-D5-007 and 197-B2-006
CCCGGGUUAGGGCUAGAAGUCGGCGGG (chemistry not fully specified) [191-D5-029] | reduced binding affinity
GGGCGGGUUAGGGCUAGAAGUCGGCGCCC (chemistry not fully specified) [191-D5-024-29b] | identical binding affinity to SDF-1 as 191-D5-007
CGCCGGGGUUAGGGCUAGAAGUCGGCCGGCG (chemistry not fully specified) [197-B2-006-31b] | the same as shown for 191-D5-007 and 197-B2-006
GGCGGGUUAGGGCUAGAAGUCGGCGCC (chemistry not fully specified) [191-D5-024] | reduced binding affinity

Same assay, conditions: reference 193-G2-001

Substance | binding to human SDF-1 in comparison to 193-G2-001
GUGGUGUGAUCUAGAUGUAGUGGCUGUUCCUAGUCAGGUAUGC (chemistry not fully specified) [193-E3-002] | reduced binding
GCGUGGUGUGAUCUAGAUGUAGUGGCUGAUCCUAGUCAGGUGCGC (chemistry not fully specified) [193-D2-002] | reduced binding; also recorded: weaker binding affinities
GCGUGGUGUGAUCUAGAUGUAGAGGCUGAUCCUAGUCAGGUACGC (chemistry not fully specified) [193-B3-002] | reduced binding

Same assay, conditions: vs. 192-A10-001 and 192-A10-008

Substance | binding affinity of derivatives of 192-A10-001 in competitive pull-down binding assay
GCCCAAAGCAACAUGUCAAUGAAAGGUAGCGGGC (aptamer; chemistry not given here) [192-A10-022] | weaker, much weaker or very much weaker binding affinity
GAAAGCAACAUGUCAAUGAAAGGUAGCC (chemistry not fully specified) [192-A10-006] | reduced binding affinity
GCGCAAAGCAACAUGUCAAUGAAAGGUAGCGUGC (aptamer; chemistry not given here) [192-A10-017] | weaker, much weaker or very much weaker binding affinity
GCGGAAAGCAACAUGUCAAUGAAAGGUAGCCCGC (aptamer; chemistry not given here) [192-A10-014] | weaker, much weaker or very much weaker binding affinity
CGCGAAAGCAACAUGUCAAUGAAAGGUAGCCGUG (aptamer; chemistry not given here) [192-A10-019] | weaker, much weaker or very much weaker binding affinity
CCCCAAAGCAACAUGUCAAUGAAAGGUAGCGGGG (aptamer; chemistry not given here) [192-A10-023] | weaker, much weaker or very much weaker binding affinity
CUGUGAAAGCAACAUGUCAAUGAAAGGUAGCCGCAG (aptamer; Made as D-RNA aptamer and L-RNA Spiegelmer, tested form not given here, further chemistry not given here) [192-A10-002] | without reduction of binding affinity
GUGCAAAGCAACAUGUCAAUGAAAGGUAGCGCGC (aptamer; chemistry not given here) [192-A10-018] | weaker, much weaker or very much weaker binding affinity
CGUGAAAGCAACAUGUCAAUGAAAGGUAGCCGCG (aptamer; chemistry not given here) [192-A10-016] | weaker, much weaker or very much weaker binding affinity
GCGCGAAAGCAACAUGUCAAUGAAAGGUAGCCGCGC (aptamer; Made as D-RNA aptamer and L-RNA Spiegelmer, tested form not given here, further chemistry not given here) [192-A10-015] | reduced binding affinity; also recorded: weaker, much weaker or very much weaker binding affinity

Same assay, conditions: vs. 193-G2-001 and 193-G2-012

Substance | binding affinity of derivatives of 193-G2-001 and 193-C2-001 in competitive pull-down binding assay
GGCCGUGUGAUCUAGAUGUAUUGGCUGAUCCUAGUCAGGGGCC (chemistry not fully specified) [193-G2-016] | reduced binding affinity
GGUGUGAUCUAGAUGUAGUGGCUGAUCCUAGUCAGGU (Listed both as L-RNA Spiegelmer and D-RNA aptamer, further chemistry not given here) [193-C2-006] | reduced binding affinity
GGGCGUGUGAUCUAGAUGUAUUGGCUGAUCCUAGUCAGGGCCC (chemistry not fully specified) [193-G2-015] | reduced binding affinity
GCGCGGUGUGAUCUAGAUGUAUUGGCUGAUCCUAGUCAGGCGCGC (chemistry not fully specified) [193-G2-013] | reduced binding affinity
GCCCGUGUGAUCUAGAUGUAUUGGCUGAUCCUAGUCAGGGGGC (chemistry not fully specified) [193-G2-017] | reduced binding affinity
UGGUGUGAUCUAGAUGUAGUGGCUGAUCCUAGUCAGGUA (Made as D-RNA aptamer and L-RNA Spiegelmer, tested form not given here, further chemistry not given here) [193-C2-005] | reduced binding affinity

Same assay, conditions: vs. 197-B2 and 191-D5-007

Substance | binding affinity of truncated derivatives of 197-B2
GCGGGGGUUAGGGCUAGAAGUCGGCCUGC (chemistry not fully specified) [197-B2-005] | without loss of binding affinity
